Test results published in patent US20240027479A1, “A Comprehensive Breath Test that Confirms Recent Use of Inhaled Cannabis within the Impairment Window” (RCU Labs, Inc., priority 2018, published 2024).
Where “and” joins values, the source holds several entries; their conditions need not be identical. Identical values can stand only once. Like-named read-outs stand apart in the source and are kept apart here.

What was measured:
[1] = Cannabinoids and Δ^9-THC metabolites in capillary blood (LC-HRMS); settings: pre-smoking
Description: The complex nature of cannabinoid pharmacokinetics and pharmacodynamics calls for a new approach for effectively determining recent use of cannabis within the impairment window. We sought to develop a multiple-parameter test based on pharmacological changes in Δ^9-THC and its metabolites in blood over time. This approach requires the collection of two samples separated by a known time interval, which is a critical difference compared to current blood testing methods that rely on the collection of a single sample. The two-sample strategy makes possible the detection of Δ^9-THC in its distribution phase where the half-life is very short [Moeller M R. et al., J Forensic Sci 37:969-83 (1992); Wall M E. et al., Clin Pharmacol Ther 34:352-63 (1983)], which occurs only within the first few hours after smoking, and for the evaluation of how Δ^9-THC metabolite levels in blood are changing with time relative to Δ^9-THC. A liquid chromatography high-resolution mass spectrometry (LC-HRMS) bioanalytical method for the quantification of cannabinoids in microsamples (50 μL) of whole blood was developed and validated for this purpose [DeGregorio M W. et al., J AOAC Int 103:725-35 (2020)].
A total of 92 subjects were included in clinical trials designed to evaluate the feasibility of the described method for determining recent cannabis use (blood-based study in 48 subjects) and recent cannabis use and impairment (breath- and blood-based study in 44 subjects). Each subject was given a single cannabis cigarette and instructed to smoke as much of it as possible within a 10-minute period. Cigarettes containing 500 mg of dried cannabis flower were prepared immediately before each smoking session. During the studies, subjects were given a variety of cannabis chemovars to smoke, with Δ^9-THC content ranging from a low of 8.5% to a high of 28.4%. A wide variety of chemovars was included to account for the variability in Δ^9-THC potencies available in numerous cannabis retail establishments in the various U.S. states where recreational and/or medicinal cannabis has been legalized. Capillary blood samples ([…] collected at various time points prior to smoking and up to 200 minutes after smoking, were obtained from a total of 92 subjects using a variety of methods including lancets and two types of automated blood collection devices. Exhaled breath samples were collected from a total of 44 subjects at various time points prior to smoking and up to 240 minutes post-smoking. Breath samples were collected using devices equipped with electrostatic polymer filters and that are designed to collect approximately 20 L of exhaled breath through normal breathing. The time required for breath sample collection was approximately 2-3 minutes. A total of 74 subjects were asked to self-assess their level of impairment before smoking and at each designated sampling time point after smoking based on a scale ranging from 0 (not impaired) to 10 (very impaired) as shown in FIG. 2. As a physical indicator of impairment, 44 subjects were evaluated for horizontal gaze nystagmus.
One of the first endpoints investigated during clinical development of the recent use test method was whether there is any relationship between blood Δ^9-THC levels and impairment. Prior to smoking, Δ^9-THC blood concentrations were evaluated in a group of 30 subjects before and up to 200 minutes after smoking a 500-mg cannabis cigarette and compared to a common legal limit (5 ng/mL) for establishing driver impairment due to cannabis.

[2] = Presence of cannabinoids in exhaled breath before and after smoking (LC-HRMS); format: in vivo, human
Method: (§1) The positive recent use test results outside of the three-hour impairment window based on blood sampling alone led to the incorporation of a second testing matrix, exhaled breath, to strengthen the results of the test method so that cannabis users who are within the impairment window after smoking can be more accurately identified. For this purpose, a total of 44 additional subjects were evaluated in a smoking study in which both exhaled breath and blood samples were collected and then analyzed by LC-HRMS for cannabinoids and Δ^9-THC metabolites. As with the 48-subject blood-based study, subjects were given a 500-mg cannabis cigarette to smoke, and breath and blood samples were collected at various time points before and after smoking.

[3] = Cannabinoid half-lives in exhaled breath, multi-point breath sampling; format: in vivo, human; settings: for Cannabinoid Half-Lives (min) in breath, back-to-back sampling: individual subject; for half-life: human, exhaled breath, inhaled, 500 mg
Method: as §1
These included the presence of CBN, CBC, CBG, Δ^9-THCV, and CBGA, and short half-lives (<60 minutes) for Δ^9-THC, CBN, CBC, CBG, and Δ^9-THCV (see Table 5 below). […] Pre-smoking, half-lives were calculable for Δ^9-THC in only three subjects.
Evidence of recent cannabis use by inhalation through smoking or vaping dissipates rapidly in exhaled breath, and thus allowing 20 minutes between breath samplings, which was employed in the blood-based study and for most of the subjects in the blood and breath-based study, may result in the loss of valuable data. In the last nine subjects involved in the exhaled breath study, a back-to-back sample collection strategy was employed whereby two exhaled breath samples were collected in quick succession at 20 and 40 minutes post-smoking. Approximately two minutes elapsed between the collection of each sample. The very short half-lives observed for Δ^9-THC, CBN, and other cannabinoids (approximately five minutes or less) in exhaled breath would allow for rapid sampling (see Table 6 below).

[4] = Stability of target analytes in the breath collection device; format: physicochemical
Description: In particular, CBN, CBG, and Δ^9-THCV all have a much greater incidence in breath during peak impairment (the first hour after smoking) compared to pre-smoking. […] Stability of the analytes within the breath collection devices was previously established (see Table 4 below).

[5] = 0-10 Minutes Post-Smoking, read-out: Average Half-Life (minutes ± SD) in breath
[6] = 0-20 Minutes Post-Smoking, read-out: Average Half-Life (minutes ± SD) in breath
[7] = 20 Minutes Post-Smoking, read-out: Cannabinoid Half-Lives (min) in breath, back-to-back sampling, Average
[8] = 40 Minutes Post-Smoking, read-out: Cannabinoid Half-Lives (min) in breath, back-to-back sampling, Average
[9] = Day 3, breath collection device
[10] = Day 7, breath collection device
[11] = Day 10, breath collection device
[12] = Day 14, breath collection device
[13] = Day 30, breath collection device

Row | SMILES | detection in subjects' blood samples at baseline prior to smoking [1] | Presence in exhaled breath, Percent (%) Positivity ([2]; >60 minutes after smoking) | Presence in exhaled breath, positive/evaluable subjects ([2]; >60 minutes after smoking) | Presence in exhaled breath, Percent (%) Positivity ([2]; Baseline (Pre-smoking)) | Presence in exhaled breath, positive/evaluable subjects ([2]; Baseline (Pre-smoking)) | Presence in exhaled breath, Percent (%) Positivity ([2]; ≤60 minutes after smoking) | Presence in exhaled breath, positive/evaluable subjects ([2]; ≤60 minutes after smoking) | Analyte Stability (%) at Room Temperature (20-25° C.) [4, 9] [%] | Analyte Stability (%) at Room Temperature (20-25° C.) [4, 10] [%] | Analyte Stability (%) at Room Temperature (20-25° C.) [4, 11] [%] | Analyte Stability (%) at Room Temperature (20-25° C.) [4, 12] [%] | Analyte Stability (%) at Room Temperature (20-25° C.) [4, 13] [%] | also measured
1 | CCCCCc1cc(O)c2c(c1)OC(C)(C)C1CC(O)C(CO)=CC21 (stereo not drawn) [8β,11-dihydroxy-Δ^9-THC] | detected |  |  |  |  |  |  |  |  |  |  |  | 
2 | CCCCCc1cc(O)c2c(c1)OC(C)(C)[C@@H]1C[C@@H](O)C(C)=C[C@@H]21 [8β-hydroxy-Δ^9-THC] | detected |  |  |  |  |  |  |  |  |  |  |  | 
3 | CCCCCc1cc(O)c2c(c1)OC(C)(C)C1CCC(CO)=CC21 (stereo not shown) [11-OH-Δ^9-THC, 11-hydroxy-Δ^9-tetrahydrocannabinol] | detected |  |  |  |  |  |  |  |  |  |  |  | 
4 | CCCCCc1cc(O)c2c(c1)OC(C)(C)[C@@H]1CCC(C(=O)O)=C[C@@H]21 [11-nor-9-carboxy-Δ^9-THC, 11-nor-9-carboxy-Δ^9-tetrahydrocannabinol] | detected |  |  |  |  |  |  |  |  |  |  |  | 
5 | CCCCCc1cc(O)c2c(c1)OC(C)(CCC=C(C)C)C=C2 (stereo not shown) [CBC, cannabichromene] | detected | (0%) | 0/40 | (0%) | 0/34 | (97.5%) | 39/40 | 100.6 | 89.1 | 89.9 | 82.2 | 75.6 | Cannabinoid Half-Lives (min) in breath, back-to-back sampling ([3]; 20 Minutes Post-Smoking): 2.2 min and 2.0 min and 2.7 min and 1.3 min and 11.8 min and 1.0 min; Cannabinoid Half-Lives (min) in breath, back-to-back sampling ([3]; 40 Minutes Post-Smoking): 2.3 min and 3.5 min and 5.2 min; half-life [3, 5]: 3.9 ± 2.5 min; half-life [3, 6]: 3.8 ± 2.3 min; half-life [3, 7]: 3.3 min; half-life [3, 8]: 3.6 min
6 | C=C(C)[C@@H]1CCC(C)=C[C@H]1c1c(O)cc(CCCCC)cc1O [CBD, cannabidiol] | detected |  |  |  |  |  |  |  |  |  |  |  | 
7 | C=C(C)[C@@H]1CCC(C)=C[C@H]1c1c(O)cc(CCCCC)c(C(=O)O)c1O [CBDA, cannabidiolic acid] | detected |  |  |  |  |  |  |  |  |  |  |  | 
8 | CCCCCc1cc(O)c(C/C=C(\C)CCC=C(C)C)c(O)c1 [CBG, cannabigerol] | detected | (2.5%) | 1/40 | (5.9%) | 2/34 | (92.5%) | 37/40 | 97.5 | 87.6 | 97.8 | 75.0 | 56.5 | Cannabinoid Half-Lives (min) in breath, back-to-back sampling ([3]; 20 Minutes Post-Smoking): 1.6 min and 1.3 min and 2.6 min and 2.1 min and 0.7 min; half-life [3, 5]: 3.6 ± 2.1 min; half-life [3, 6]: 3.7 ± 3.1 min; half-life [3, 7]: 1.7 min
9 | CCCCCc1cc(O)c(C/C=C(\C)CCC=C(C)C)c(O)c1C(=O)O [CBGA, cannabigerolic acid] | detected | (10.0%) | 4/40 | (11.8%) | 4/34 | (45.0%) | 18/40 | 99.4 | 110.9 | 110.4 |  | 114.3 | 
10 | CCCCCc1cc(O)c2c(c1)OC(C)(C)c1ccc(C)cc1-2 [CBN, cannabinol] | detected | (10.0%) | 4/40 | (2.9%) | 1/34 | (92.5%) | 37/40 | 104.5 | 100.0 | 107.3 | 87.9 | 74.4 | Cannabinoid Half-Lives (min) in breath, back-to-back sampling ([3]; 20 Minutes Post-Smoking): 2.0 min and 2.3 min and 1.8 min and 6.4 min and 1.1 min; Cannabinoid Half-Lives (min) in breath, back-to-back sampling ([3]; 40 Minutes Post-Smoking): 2.9 min and 4.8 min and 10.7 min; half-lives observed in exhaled breath ([3]; approximate, summary statement): five; half-life ([3]; 20-60 Minutes Post-Smoking, read-out: Average Half-Life (minutes ± SD) in breath): 35.2 min; half-life [3, 7]: 2.7 min; half-life ([3]; 40-60 Minutes Post-Smoking, read-out: Average Half-Life (minutes ± SD) in breath): 12.8 min; half-life [3, 8]: 6.1 min
11 | CCCCCc1cc2c(c(O)c1C(=O)O)[C@@H]1C=C(C)CC[C@H]1C(C)(C)O2 [Δ^9-THCA, Δ^9-tetrahydrocannabinolic acid A] | detected |  |  |  |  |  |  |  |  |  |  |  | 
12 | CCCc1cc(O)c2c(c1)OC(C)(C)[C@@H]1CCC(C)=C[C@@H]21 [Δ^9-THCV, Δ^9-tetrahydrocannabivarin] | detected | (0%) | 0/40 | (0%) | 0/34 | (90.0%) | 36/40 | 79.7 | 68.1 | 69.8 | 56.5 | 47.1 | Average Half-Life (minutes ± SD) in breath ([3]; 0-10 Minutes Post-Smoking): 4.2 ± 3.9 min; Average Half-Life (minutes ± SD) in breath ([3]; 0-20 Minutes Post-Smoking): 2.9 ± 0.7 min
